Measured values reported in ChEMBL document CHEMBL1201862, “PubChem BioAssay data set” (2004).
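1) Cells in 96-well plates. 2) Compound, 48 h, 5 concentrations. 3) Linear interpolation between surrounding doses. 4) Unreached endpoint = highest concentration. GI50 = concentration required for 50% inhibition of growth.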 The source made the active and inactive calls. Rule as the data show it: active = GI50 up to about 1.1 µM and inactive = higher.

Tests used:
Assay in all cases: NCI tumour cell line growth inhibition, 48 h
OVCAR-8 = test system: OVCAR-8
MDA-MB-435 = test system: MDA-MB-435
SN12C = test system: SN12C
A549 = test system: A549
SF-539 = test system: SF-539
OVCAR-3 = test system: OVCAR-3
COLO 205 = test system: COLO 205
ACHN = test system: ACHN
SK-MEL-2 = test system: SK-MEL-2
SF-268 = test system: SF-268
EKVX = test system: EKVX
OVCAR-4 = test system: OVCAR-4
SK-MEL-28 = test system: SK-MEL-28
HT-29 = test system: HT-29
U-251 = test system: U-251
786-0 = test system: 786-0
IGROV-1 = test system: IGROV-1
SR = test system: SR
RPMI-8226 = test system: RPMI-8226
HCC 2998 = test system: HCC 2998

Measured: GI50

CSc1nc2cc(S(=O)(=O)N3CCCCC3)ccc2s1
inactive: OVCAR-8 > 100 µM | MDA-MB-435 > 100 µM | SN12C > 100 µM | A549 > 100 µM | SF-539 > 100 µM | OVCAR-3 > 100 µM | COLO 205 > 100 µM | ACHN > 100 µM | SK-MEL-2 > 100 µM | SF-268 > 100 µM | EKVX 41.3 µM | OVCAR-4 > 100 µM | SK-MEL-28 > 100 µM | HT-29 > 100 µM | U-251 > 100 µM | 786-0 > 100 µM | IGROV-1 > 100 µM | SR > 100 µM | RPMI-8226 > 100 µM

O=C(O)CCN1C(=S)CSC1=S
inactive: OVCAR-8 > 100 µM | MDA-MB-435 > 100 µM | SN12C > 100 µM | A549 > 100 µM | SF-539 > 100 µM | OVCAR-3 > 100 µM | COLO 205 > 100 µM | ACHN > 100 µM | SK-MEL-2 > 100 µM | SF-268 > 100 µM | EKVX > 100 µM | OVCAR-4 > 100 µM | SK-MEL-28 > 100 µM | HT-29 > 100 µM | U-251 > 100 µM | 786-0 > 100 µM | IGROV-1 > 100 µM | SR 39.7 µM | RPMI-8226 54.7 µM

C[C@]12CC[C@H]3[C@@H](CCC4=C(Br)C(=O)C=C[C@@]43O)[C@@H]1CCC2=O
inactive: OVCAR-8 25.8 µM | MDA-MB-435 33.7 µM | SN12C 33.7 µM | A549 59.7 µM | SF-539 53.7 µM | OVCAR-3 45.4 µM | COLO 205 61 µM | ACHN 40.6 µM | SK-MEL-2 40.9 µM | SF-268 45.7 µM | EKVX 61.2 µM | OVCAR-4 33.3 µM | SK-MEL-28 94.2 µM | HT-29 36 µM | U-251 52.6 µM | 786-0 24.9 µM | IGROV-1 36 µM | SR 8.34 µM | RPMI-8226 33.7 µM

C[N+]1(C(CO)Cc2c[nH]c3ccccc23)Cc2ccccc2C1 (configuration not stated)
inactive: OVCAR-8 > 100 µM | MDA-MB-435 > 100 µM | SN12C > 100 µM | A549 59.4 µM | OVCAR-3 > 100 µM | COLO 205 > 100 µM | ACHN > 100 µM | SK-MEL-2 > 100 µM | SF-268 > 100 µM | HCC 2998 > 100 µM | EKVX 62.4 µM | OVCAR-4 > 100 µM | SK-MEL-28 31.7 µM | HT-29 92.3 µM | U-251 > 100 µM | 786-0 > 100 µM | IGROV-1 > 100 µM | SR > 100 µM | RPMI-8226 76.6 µM

C[N+]12C=CC=C1C(N1CCCC1)c1sc(-c3ccc(Cl)cc3)cc12 (configuration not stated)
inactive: OVCAR-8 16.9 µM | MDA-MB-435 15.7 µM | SN12C 13.7 µM | A549 28.6 µM | OVCAR-3 13.6 µM | COLO 205 16.9 µM | ACHN 46 µM | SK-MEL-2 8.39 µM | SF-268 17.1 µM | HCC 2998 15.7 µM | EKVX 22.6 µM | OVCAR-4 18.2 µM | SK-MEL-28 17.2 µM | HT-29 17.4 µM | U-251 12.1 µM | 786-0 15.4 µM | IGROV-1 16.9 µM | SR 11.6 µM | RPMI-8226 10.6 µM

CC(=O)/C(=C\c1ccc(Cl)c(Cl)c1)C(=O)C(C)CN(C)C (configuration not stated)
inactive: OVCAR-8 1.91 µM | MDA-MB-435 3.24 µM | SN12C 6.73 µM | A549 14.5 µM | SF-539 3.52 µM | OVCAR-3 4.1 µM | COLO 205 11.4 µM | ACHN 5.24 µM | SF-268 3.62 µM | HCC 2998 2.39 µM | EKVX 14.2 µM | SK-MEL-28 6.89 µM | HT-29 5.12 µM | U-251 3.26 µM | 786-0 2.39 µM | IGROV-1 2.07 µM | SR 1.82 µM | RPMI-8226 1.32 µM

CNC(=O)CCC(NC(=O)OC(C)(C)C)C(=O)NC(Cc1ccc(NC(=O)CCCCC(C)=O)cc1)C(=O)NCC(=O)NC (configuration not stated)
inactive: OVCAR-8 > 100 µM | MDA-MB-435 > 100 µM | SN12C > 100 µM | A549 > 100 µM | SF-539 > 100 µM | OVCAR-3 > 100 µM | COLO 205 > 100 µM | ACHN > 100 µM | SF-268 > 100 µM | HCC 2998 > 100 µM | EKVX > 100 µM | OVCAR-4 > 100 µM | SK-MEL-28 > 100 µM | HT-29 > 100 µM | U-251 > 100 µM | 786-0 > 100 µM | IGROV-1 > 100 µM | SR > 100 µM | RPMI-8226 > 100 µM

CCOC(=O)C1(C#N)C(C#N)(C#N)C1(C#N)C#N
inactive: OVCAR-8 > 100 µM | MDA-MB-435 > 100 µM | SN12C > 100 µM | A549 > 100 µM | COLO 205 > 100 µM | ACHN > 100 µM | SK-MEL-2 > 100 µM | SF-268 > 100 µM | HCC 2998 > 100 µM | EKVX > 100 µM | OVCAR-4 > 100 µM | SK-MEL-28 > 100 µM | HT-29 > 100 µM | U-251 > 100 µM | 786-0 > 100 µM | IGROV-1 > 100 µM | SR 88.5 µM | RPMI-8226 > 100 µM

CN1CCC2(CC1)/C(=N/C1CCCCC1)NC(=S)N2c1ccccc1
inactive: OVCAR-8 > 100 µM | MDA-MB-435 > 100 µM | SN12C > 100 µM | A549 > 100 µM | SF-539 > 100 µM | COLO 205 > 100 µM | ACHN 89.3 µM | SF-268 > 100 µM | HCC 2998 > 100 µM | EKVX > 100 µM | OVCAR-4 > 100 µM | SK-MEL-28 > 100 µM | HT-29 > 100 µM | U-251 > 100 µM | 786-0 > 100 µM | IGROV-1 > 100 µM | SR > 100 µM | RPMI-8226 > 100 µM

O=S1(=O)N=C(SCc2c[nH]c3ccccc23)N(c2ccccc2)c2ccncc21
inactive: OVCAR-8 > 100 µM | MDA-MB-435 > 100 µM | SN12C 74.6 µM | A549 > 100 µM | SF-539 22.8 µM | OVCAR-3 > 100 µM | COLO 205 > 100 µM | ACHN 65.3 µM | SK-MEL-2 > 100 µM | SF-268 50.9 µM | HCC 2998 > 100 µM | EKVX > 100 µM | OVCAR-4 > 100 µM | SK-MEL-28 > 100 µM | HT-29 > 100 µM | U-251 87.5 µM | 786-0 25.1 µM | SR 34.2 µM

CCn1c(=O)c2c3cc(OC(C)=O)ccc3oc2c2ccc(OC(C)=O)cc21
inactive: OVCAR-8 30.8 µM | MDA-MB-435 31.1 µM | SN12C 43.6 µM | A549 43.9 µM | SF-539 27.5 µM | OVCAR-3 39.8 µM | COLO 205 20.7 µM | ACHN 24.8 µM | SF-268 31.9 µM | HCC 2998 23.4 µM | EKVX 21 µM | OVCAR-4 36.9 µM | SK-MEL-28 49 µM | HT-29 37.3 µM | U-251 32.6 µM | 786-0 56.1 µM | IGROV-1 38.9 µM | SR 36.3 µM

CN(NC(=O)/C(=C/c1ccc(Cl)cc1)NC(=O)c1ccccc1)c1cn[nH]c(=O)c1Cl
inactive: OVCAR-8 46.9 µM | MDA-MB-435 > 100 µM | SN12C > 100 µM | A549 > 100 µM | SF-539 > 100 µM | OVCAR-3 87.1 µM | COLO 205 > 100 µM | ACHN > 100 µM | SK-MEL-2 > 100 µM | SF-268 > 100 µM | EKVX 68.5 µM | OVCAR-4 > 100 µM | SK-MEL-28 > 100 µM | HT-29 > 100 µM | U-251 40.9 µM | 786-0 > 100 µM | IGROV-1 41.4 µM | SR > 100 µM | RPMI-8226 17.4 µM

COC(=O)c1c2c(cc3c1CC1(Cc4cc5c(c(C(C)=O)c4C1)CCCC5)C3)CCCC2 (configuration not stated)
inactive: OVCAR-8 > 100 µM | MDA-MB-435 92.5 µM | SN12C > 100 µM | A549 > 100 µM | SF-539 > 100 µM | OVCAR-3 > 100 µM | COLO 205 > 100 µM | ACHN 44.1 µM | SK-MEL-2 21.4 µM | HCC 2998 > 100 µM | EKVX > 100 µM | OVCAR-4 > 100 µM | HT-29 48.8 µM | U-251 > 100 µM | 786-0 > 100 µM | IGROV-1 > 100 µM | SR 3.02 µM | RPMI-8226 29.6 µM

CC(C)Cc1c(C#N)c(C#N)c(N)n1Cc1ccccc1
inactive: OVCAR-8 > 100 µM | MDA-MB-435 > 100 µM | SN12C > 100 µM | A549 > 100 µM | SF-539 > 100 µM | OVCAR-3 > 100 µM | COLO 205 > 100 µM | ACHN 82.4 µM | SK-MEL-2 > 100 µM | SF-268 > 100 µM | HCC 2998 > 100 µM | EKVX > 100 µM | OVCAR-4 > 100 µM | HT-29 > 100 µM | U-251 > 100 µM | 786-0 > 100 µM | IGROV-1 > 100 µM | SR > 100 µM | RPMI-8226 > 100 µM

CCC[C@H](O)[C@@H](CNc1cc(NC(C)=O)nc(NC(C)=O)n1)N(Cc1ccccc1)Cc1ccccc1
inactive: OVCAR-8 13.7 µM | MDA-MB-435 54 µM | SN12C 41.3 µM | A549 13.2 µM | OVCAR-3 18.9 µM | COLO 205 26.3 µM | ACHN 19.8 µM | SK-MEL-2 27.4 µM | HCC 2998 76.4 µM | EKVX 12.1 µM | OVCAR-4 15.7 µM | SK-MEL-28 42.9 µM | U-251 47 µM | 786-0 17.7 µM | IGROV-1 12.8 µM | SR 49.5 µM | RPMI-8226 46.2 µM
